Experiments:
[1] = 101.33 kPa, Liquid; for speed of sound: Sing-around technique in a fixed-path interferometer
[2] = xn = mol fraction of the nth substance listed; details: 101 kPa, Liquid

CCCCCCCCCCO [decan-1-ol]
[1]
Details	mass density [kg/m3]	speed of sound [m/s]
293.15 K	829.601	1396.2
298.15 K	826.198	1378.9
303.15 K	822.767	1361.7

CCCCCCCCCCO [decan-1-ol] + CCCCOCCCC
[2]
Details	mass density [kg/m3]
293.15 K, x1 = 0.1021	776.363
293.15 K, x1 = 0.1496	779.787
293.15 K, x1 = 0.1993	783.289
293.15 K, x1 = 0.25	786.71
293.15 K, x1 = 0.2996	789.984
293.15 K, x1 = 0.3412	792.683
293.15 K, x1 = 0.3978	796.258
293.15 K, x1 = 0.4468	799.27
293.15 K, x1 = 0.4978	802.397
293.15 K, x1 = 0.5495	805.461
293.15 K, x1 = 0.6009	808.42
293.15 K, x1 = 0.65	811.195
293.15 K, x1 = 0.6993	813.929
293.15 K, x1 = 0.7464	816.506
293.15 K, x1 = 0.7946	819.104
293.15 K, x1 = 0.8488	821.951
293.15 K, x1 = 0.9004	824.616
293.15 K, x1 = 0.95	827.118
298.15 K, x1 = 0.0516	768.307
298.15 K, x1 = 0.1006	772.051
298.15 K, x1 = 0.1498	775.68
298.15 K, x1 = 0.2012	779.315
298.15 K, x1 = 0.2522	782.834
298.15 K, x1 = 0.2996	786.011
298.15 K, x1 = 0.35	789.331
298.15 K, x1 = 0.3994	792.479
298.15 K, x1 = 0.4479	795.536
298.15 K, x1 = 0.4981	798.656
298.15 K, x1 = 0.5512	801.843
298.15 K, x1 = 0.5993	804.66
298.15 K, x1 = 0.6492	807.539
298.15 K, x1 = 0.6995	810.378
298.15 K, x1 = 0.7501	813.185
298.15 K, x1 = 0.7981	815.763
298.15 K, x1 = 0.8498	818.511
298.15 K, x1 = 0.9001	821.147
298.15 K, x1 = 0.9498	823.681
303.15 K, x1 = 0.0509	763.957
303.15 K, x1 = 0.1009	767.841
303.15 K, x1 = 0.1503	771.536
303.15 K, x1 = 0.1994	775.085
303.15 K, x1 = 0.25	778.691
303.15 K, x1 = 0.2996	782.028
303.15 K, x1 = 0.3498	785.36
303.15 K, x1 = 0.3992	788.589
303.15 K, x1 = 0.4451	791.54
303.15 K, x1 = 0.4944	794.601
303.15 K, x1 = 0.5509	798.05
303.15 K, x1 = 0.5921	800.526
303.15 K, x1 = 0.6514	803.989
303.15 K, x1 = 0.6896	806.226
303.15 K, x1 = 0.7493	809.528
303.15 K, x1 = 0.7963	812.111
303.15 K, x1 = 0.8475	814.866
303.15 K, x1 = 0.899	817.595
303.15 K, x1 = 0.9474	820.099

CCCCCCCO [heptan-1-ol]
[1]
Details	mass density [kg/m3]	speed of sound [m/s]
293.15 K	822.398	1344
298.15 K	818.894	1326.7
303.15 K	815.357	1309.9

CCCCCCCO [heptan-1-ol] + CCCCOCCCC
[2]
Details	mass density [kg/m3]
293.15 K, x1 = 0.1017	773.953
293.15 K, x1 = 0.1519	776.565
293.15 K, x1 = 0.1998	779.042
293.15 K, x1 = 0.2503	781.671
293.15 K, x1 = 0.3495	786.842
293.15 K, x1 = 0.4019	789.598
293.15 K, x1 = 0.4529	792.309
293.15 K, x1 = 0.5013	794.907
293.15 K, x1 = 0.548	797.412
293.15 K, x1 = 0.6032	800.39
293.15 K, x1 = 0.6486	802.884
293.15 K, x1 = 0.7001	805.686
293.15 K, x1 = 0.7515	808.582
293.15 K, x1 = 0.7771	809.94
293.15 K, x1 = 0.8009	811.278
293.15 K, x1 = 0.8982	816.689
293.15 K, x1 = 0.947	819.42
298.15 K, x1 = 0.0513	767.002
298.15 K, x1 = 0.0991	769.571
298.15 K, x1 = 0.1526	772.412
298.15 K, x1 = 0.2019	775.005
298.15 K, x1 = 0.2506	777.565
298.15 K, x1 = 0.3033	780.366
298.15 K, x1 = 0.3498	782.806
298.15 K, x1 = 0.4	785.5
298.15 K, x1 = 0.4523	788.317
298.15 K, x1 = 0.4995	790.883
298.15 K, x1 = 0.5491	793.589
298.15 K, x1 = 0.6026	796.53
298.15 K, x1 = 0.6503	799.167
298.15 K, x1 = 0.6985	801.859
298.15 K, x1 = 0.7533	804.902
298.15 K, x1 = 0.8005	807.562
298.15 K, x1 = 0.8485	810.291
298.15 K, x1 = 0.8994	813.176
298.15 K, x1 = 0.9439	815.703
303.15 K, x1 = 0.0548	762.859
303.15 K, x1 = 0.1037	765.526
303.15 K, x1 = 0.1537	768.203
303.15 K, x1 = 0.2034	770.861
303.15 K, x1 = 0.2496	773.336
303.15 K, x1 = 0.3003	776.062
303.15 K, x1 = 0.3482	778.634
303.15 K, x1 = 0.3977	781.333
303.15 K, x1 = 0.4501	784.185
303.15 K, x1 = 0.4938	786.627
303.15 K, x1 = 0.5487	789.635
303.15 K, x1 = 0.6009	792.536
303.15 K, x1 = 0.6508	795.355
303.15 K, x1 = 0.6994	798.099
303.15 K, x1 = 0.7519	801.07
303.15 K, x1 = 0.8005	803.865
303.15 K, x1 = 0.851	806.755
303.15 K, x1 = 0.8994	809.543
303.15 K, x1 = 0.946	812.239

CCCCCCCCO [octan-1-ol]
[1]
Details	mass density [kg/m3]	speed of sound [m/s]
293.15 K	825.183	1364.3
298.15 K	821.732	1347.1
303.15 K	818.248	1330.2
